Experimental data from article PMC8401933 (Molecules, 2021).

Experiments:
Assay in all cases: KINOMEscan binding
PFTAIRE2 = target: T1, PFTAIRE2 (Homo sapiens, UniProt Q96Q40); conditions: read-out: Percent Control
T1 construct: purchased Eurofins DiscoverX KINOMEscan

GRK3 = target: T2, GRK3 (Homo sapiens, UniProt P35626); conditions: read-out: Percent Control
T2 construct: purchased Eurofins DiscoverX KINOMEscan

VPS34 = target: T3, VPS34 (Homo sapiens, UniProt Q8NEB9); conditions: read-out: Percent Control
T3 construct: purchased Eurofins DiscoverX KINOMEscan

CASK = target: T4, CASK (Homo sapiens, UniProt O14936); conditions: read-out: Percent Control
T4 construct: purchased Eurofins DiscoverX KINOMEscan

ERK5 = target: T5, ERK5 (Homo sapiens, UniProt Q13164); conditions: read-out: Percent Control
T5 construct: purchased Eurofins DiscoverX KINOMEscan

MRCKB = target: T6, MRCKB (Homo sapiens, UniProt Q9Y5S2); conditions: read-out: Percent Control
T6 construct: purchased Eurofins DiscoverX KINOMEscan
T6 sequence (Q9Y5S2 whole entry): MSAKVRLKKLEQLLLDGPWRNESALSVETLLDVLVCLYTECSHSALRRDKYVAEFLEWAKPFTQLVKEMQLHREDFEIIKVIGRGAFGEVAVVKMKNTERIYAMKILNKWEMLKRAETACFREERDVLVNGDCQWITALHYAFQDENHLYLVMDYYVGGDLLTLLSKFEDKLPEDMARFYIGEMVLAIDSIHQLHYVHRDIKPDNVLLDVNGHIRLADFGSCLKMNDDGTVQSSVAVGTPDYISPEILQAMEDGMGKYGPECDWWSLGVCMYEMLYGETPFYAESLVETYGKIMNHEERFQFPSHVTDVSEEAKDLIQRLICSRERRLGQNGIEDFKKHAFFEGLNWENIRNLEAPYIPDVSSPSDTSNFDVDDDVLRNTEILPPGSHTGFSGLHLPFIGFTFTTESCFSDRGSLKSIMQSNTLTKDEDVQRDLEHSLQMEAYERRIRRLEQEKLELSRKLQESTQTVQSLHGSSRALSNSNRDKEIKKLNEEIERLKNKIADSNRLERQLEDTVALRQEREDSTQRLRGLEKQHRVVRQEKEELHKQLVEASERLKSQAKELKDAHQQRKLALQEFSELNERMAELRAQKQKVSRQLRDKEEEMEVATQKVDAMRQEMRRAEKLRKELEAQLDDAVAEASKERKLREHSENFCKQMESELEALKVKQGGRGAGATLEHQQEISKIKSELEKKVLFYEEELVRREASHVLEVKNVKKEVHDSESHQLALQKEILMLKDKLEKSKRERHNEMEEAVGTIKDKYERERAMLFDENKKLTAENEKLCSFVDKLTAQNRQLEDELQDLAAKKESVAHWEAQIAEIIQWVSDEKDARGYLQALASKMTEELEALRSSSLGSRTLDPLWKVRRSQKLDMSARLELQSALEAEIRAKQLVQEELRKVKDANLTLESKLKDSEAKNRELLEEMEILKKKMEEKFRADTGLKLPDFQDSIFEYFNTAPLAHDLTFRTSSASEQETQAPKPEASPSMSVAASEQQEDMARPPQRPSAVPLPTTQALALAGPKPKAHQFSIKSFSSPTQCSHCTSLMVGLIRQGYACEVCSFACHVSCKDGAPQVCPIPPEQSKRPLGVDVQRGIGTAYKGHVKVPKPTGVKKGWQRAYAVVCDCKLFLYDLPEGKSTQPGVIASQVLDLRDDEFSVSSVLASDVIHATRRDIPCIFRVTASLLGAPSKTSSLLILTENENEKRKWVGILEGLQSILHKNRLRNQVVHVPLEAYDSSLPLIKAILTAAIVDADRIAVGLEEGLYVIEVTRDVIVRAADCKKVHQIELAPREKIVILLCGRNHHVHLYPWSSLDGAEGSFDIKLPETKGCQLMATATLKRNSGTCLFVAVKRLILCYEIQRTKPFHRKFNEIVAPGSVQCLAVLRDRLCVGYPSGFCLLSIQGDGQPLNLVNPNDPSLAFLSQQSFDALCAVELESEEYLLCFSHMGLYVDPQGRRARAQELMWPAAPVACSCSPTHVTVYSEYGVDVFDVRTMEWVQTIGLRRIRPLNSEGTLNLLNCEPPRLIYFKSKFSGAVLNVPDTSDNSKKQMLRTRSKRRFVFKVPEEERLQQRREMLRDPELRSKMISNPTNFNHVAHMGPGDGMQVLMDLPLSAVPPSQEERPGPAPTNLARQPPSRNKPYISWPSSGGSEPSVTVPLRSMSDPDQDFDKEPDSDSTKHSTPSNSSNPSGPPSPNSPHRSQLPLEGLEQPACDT

SRMS = target: T7, SRMS (Homo sapiens, UniProt Q9H3Y6); conditions: read-out: Percent Control
T7 construct: purchased Eurofins DiscoverX KINOMEscan

[1] = target: T8, ABL1(F317L)-nonphosphorylated (Homo sapiens, UniProt P00519, F317L); conditions: read-out: Percent Control
T8 construct: purchased Eurofins DiscoverX KINOMEscan

BRAF = target: T9, BRAF (Homo sapiens, UniProt P15056); conditions: read-out: Percent Control
T9 construct: purchased Eurofins DiscoverX KINOMEscan

[2] = target: T10, ABL1(F317L)-phosphorylated (Homo sapiens, UniProt P00519, F317L); conditions: read-out: Percent Control
T10 construct: purchased Eurofins DiscoverX KINOMEscan

ERN1 = target: T11, ERN1 (Homo sapiens, UniProt O75460); conditions: read-out: Percent Control
T11 construct: purchased Eurofins DiscoverX KINOMEscan

BMPR2 = target: T12, BMPR2 (Homo sapiens, UniProt Q13873); conditions: read-out: Percent Control
T12 construct: purchased Eurofins DiscoverX KINOMEscan

PIK3CA(H1047Y) = target: T13, PIK3CA(H1047Y) (Homo sapiens, UniProt P42336, H1047Y); conditions: read-out: Percent Control
T13 construct: purchased Eurofins DiscoverX KINOMEscan

PAK6 = target: T14, PAK6 (Homo sapiens, UniProt Q9NQU5); conditions: read-out: Percent Control
T14 construct: purchased Eurofins DiscoverX KINOMEscan
T14 sequence (Q9NQU5 whole entry): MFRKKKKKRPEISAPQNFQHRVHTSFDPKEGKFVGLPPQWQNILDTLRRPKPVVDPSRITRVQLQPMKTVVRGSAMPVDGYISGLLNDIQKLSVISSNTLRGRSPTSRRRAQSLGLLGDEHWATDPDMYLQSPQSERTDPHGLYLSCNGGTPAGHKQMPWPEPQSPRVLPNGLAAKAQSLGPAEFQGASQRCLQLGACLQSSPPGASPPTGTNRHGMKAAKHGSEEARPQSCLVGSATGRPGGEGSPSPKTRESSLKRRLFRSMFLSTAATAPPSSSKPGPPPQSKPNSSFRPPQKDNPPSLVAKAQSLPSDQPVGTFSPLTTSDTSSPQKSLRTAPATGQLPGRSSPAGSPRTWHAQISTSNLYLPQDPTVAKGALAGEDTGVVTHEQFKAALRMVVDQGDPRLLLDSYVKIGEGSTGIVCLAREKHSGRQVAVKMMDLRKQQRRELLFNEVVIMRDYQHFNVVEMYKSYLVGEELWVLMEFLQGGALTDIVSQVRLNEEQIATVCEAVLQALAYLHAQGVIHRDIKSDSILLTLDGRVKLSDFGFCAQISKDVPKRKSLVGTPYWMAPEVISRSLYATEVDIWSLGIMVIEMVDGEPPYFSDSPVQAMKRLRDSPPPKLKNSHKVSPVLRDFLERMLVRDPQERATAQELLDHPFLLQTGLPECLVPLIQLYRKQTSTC

PAK1 = target: T15, PAK1 (Homo sapiens, UniProt Q13153); conditions: read-out: Percent Control
T15 construct: purchased Eurofins DiscoverX KINOMEscan

STK36 = target: T16, STK36 (Homo sapiens, UniProt Q9NRP7); conditions: read-out: Percent Control
T16 construct: purchased Eurofins DiscoverX KINOMEscan

MEK2 = target: T17, MEK2 (Homo sapiens, UniProt P36507); conditions: read-out: Percent Control
T17 construct: purchased Eurofins DiscoverX KINOMEscan

KIT(A829P) = target: T18, KIT(A829P) (Homo sapiens, UniProt P10721, A829P); conditions: read-out: Percent Control
T18 construct: purchased Eurofins DiscoverX KINOMEscan

PCTK2 = target: T19, PCTK2 (Homo sapiens, UniProt Q00537); conditions: read-out: Percent Control
T19 construct: purchased Eurofins DiscoverX KINOMEscan

[3] = target: T20, TYK2(JH1domain-catalytic) (Homo sapiens, UniProt P29597); conditions: read-out: Percent Control
T20 construct: TYK2(JH1domain-catalytic); purchased Eurofins DiscoverX KINOMEscan

MAP3K4 = target: T21, MAP3K4 (Homo sapiens, UniProt Q9Y6R4); conditions: read-out: Percent Control
T21 construct: purchased Eurofins DiscoverX KINOMEscan

CLK2 = target: T22, CLK2 (Homo sapiens, UniProt P49760); conditions: read-out: Percent Control
T22 construct: purchased Eurofins DiscoverX KINOMEscan

AMPK-alpha2 = target: T23, AMPK-alpha2 (Homo sapiens, UniProt P54646); conditions: read-out: Percent Control
T23 construct: purchased Eurofins DiscoverX KINOMEscan

HASPIN = target: T24, HASPIN (Homo sapiens, UniProt Q8TF76); conditions: read-out: Percent Control
T24 construct: purchased Eurofins DiscoverX KINOMEscan

BLK = target: T25, BLK (Homo sapiens, UniProt P51451); conditions: read-out: Percent Control
T25 construct: purchased Eurofins DiscoverX KINOMEscan

CDC2L1 = target: T26, CDC2L1 (Homo sapiens, UniProt P21127); conditions: read-out: Percent Control
T26 construct: purchased Eurofins DiscoverX KINOMEscan

CSNK1E = target: T27, CSNK1E (Homo sapiens, UniProt P49674); conditions: read-out: Percent Control
T27 construct: purchased Eurofins DiscoverX KINOMEscan

LRRK2(G2019S) = target: T28, LRRK2(G2019S) (Homo sapiens, UniProt Q5S007, G2019S); conditions: read-out: Percent Control
T28 construct: purchased Eurofins DiscoverX KINOMEscan

ABL1-nonphosphorylated = target: T29, ABL1-nonphosphorylated (Homo sapiens, UniProt P00519); conditions: read-out: Percent Control
T29 construct: purchased Eurofins DiscoverX KINOMEscan

LOK = target: T30, LOK (Homo sapiens, UniProt O94804); conditions: read-out: Percent Control
T30 construct: purchased Eurofins DiscoverX KINOMEscan

MELK = target: T31, MELK (Homo sapiens, UniProt Q14680); conditions: read-out: Percent Control
T31 construct: purchased Eurofins DiscoverX KINOMEscan

PKN1 = target: T32, PKN1 (Homo sapiens, UniProt Q16512); conditions: read-out: Percent Control
T32 construct: purchased Eurofins DiscoverX KINOMEscan

YSK4 = target: T33, YSK4 (Homo sapiens, UniProt Q56UN5); conditions: read-out: Percent Control
T33 construct: purchased Eurofins DiscoverX KINOMEscan
T33 sequence (Q56UN5 whole entry): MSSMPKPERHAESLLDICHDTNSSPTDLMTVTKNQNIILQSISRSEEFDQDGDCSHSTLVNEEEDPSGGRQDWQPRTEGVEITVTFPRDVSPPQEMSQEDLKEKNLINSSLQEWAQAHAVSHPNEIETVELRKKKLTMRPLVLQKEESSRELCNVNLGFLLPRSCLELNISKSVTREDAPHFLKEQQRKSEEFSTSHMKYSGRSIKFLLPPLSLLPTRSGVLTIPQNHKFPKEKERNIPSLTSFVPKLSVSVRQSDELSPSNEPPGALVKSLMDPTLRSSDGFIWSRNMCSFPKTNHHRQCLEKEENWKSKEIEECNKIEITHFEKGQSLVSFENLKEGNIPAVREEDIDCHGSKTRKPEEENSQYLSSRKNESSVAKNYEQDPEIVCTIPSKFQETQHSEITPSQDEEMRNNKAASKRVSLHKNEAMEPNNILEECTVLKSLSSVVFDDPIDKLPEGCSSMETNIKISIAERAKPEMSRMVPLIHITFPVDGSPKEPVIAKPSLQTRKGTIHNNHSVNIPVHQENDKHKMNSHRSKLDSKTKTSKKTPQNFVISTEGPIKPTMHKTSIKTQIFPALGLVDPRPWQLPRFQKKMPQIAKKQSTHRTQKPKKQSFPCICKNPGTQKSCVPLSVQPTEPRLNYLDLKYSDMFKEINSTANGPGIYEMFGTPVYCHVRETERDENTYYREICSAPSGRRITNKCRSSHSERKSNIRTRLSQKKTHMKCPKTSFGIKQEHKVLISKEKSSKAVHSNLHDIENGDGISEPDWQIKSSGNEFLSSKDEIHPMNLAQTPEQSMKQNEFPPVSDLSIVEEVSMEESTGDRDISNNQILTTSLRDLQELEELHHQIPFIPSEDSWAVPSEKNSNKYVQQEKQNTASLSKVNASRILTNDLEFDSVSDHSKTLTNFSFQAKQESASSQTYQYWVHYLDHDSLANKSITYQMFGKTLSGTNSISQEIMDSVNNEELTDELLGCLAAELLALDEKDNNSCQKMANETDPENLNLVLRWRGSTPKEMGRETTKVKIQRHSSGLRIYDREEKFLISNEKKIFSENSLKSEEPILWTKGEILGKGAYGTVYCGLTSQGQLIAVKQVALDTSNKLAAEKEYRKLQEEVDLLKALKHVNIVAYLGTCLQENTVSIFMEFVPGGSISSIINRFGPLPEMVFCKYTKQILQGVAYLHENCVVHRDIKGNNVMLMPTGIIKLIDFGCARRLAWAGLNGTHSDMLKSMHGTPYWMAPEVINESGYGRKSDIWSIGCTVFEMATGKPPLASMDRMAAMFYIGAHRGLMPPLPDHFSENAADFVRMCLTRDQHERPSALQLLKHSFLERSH

FGFR2 = target: T34, FGFR2 (Homo sapiens, UniProt P21802); conditions: read-out: Percent Control
T34 construct: purchased Eurofins DiscoverX KINOMEscan

MEK4 = target: T35, MEK4 (Homo sapiens, UniProt P45985); conditions: read-out: Percent Control
T35 construct: purchased Eurofins DiscoverX KINOMEscan

FLT4 = target: T36, FLT4 (Homo sapiens, UniProt P35916); conditions: read-out: Percent Control
T36 construct: purchased Eurofins DiscoverX KINOMEscan

IGF1R = target: T37, IGF1R (Homo sapiens, UniProt P08069); conditions: read-out: Percent Control
T37 construct: purchased Eurofins DiscoverX KINOMEscan

ARK5 = target: T38, ARK5 (Homo sapiens, UniProt O60285); conditions: read-out: Percent Control
T38 construct: purchased Eurofins DiscoverX KINOMEscan

RIOK3 = target: T39, RIOK3 (Homo sapiens, UniProt O14730); conditions: read-out: Percent Control
T39 construct: purchased Eurofins DiscoverX KINOMEscan

TTK = target: T40, TTK (Homo sapiens, UniProt P33981); conditions: read-out: Percent Control
T40 construct: purchased Eurofins DiscoverX KINOMEscan

ROCK1 = target: T41, ROCK1 (Homo sapiens, UniProt Q13464)
T41 construct: purchased Eurofins DiscoverX KINOMEscan
T41 sequence (Q13464 whole entry): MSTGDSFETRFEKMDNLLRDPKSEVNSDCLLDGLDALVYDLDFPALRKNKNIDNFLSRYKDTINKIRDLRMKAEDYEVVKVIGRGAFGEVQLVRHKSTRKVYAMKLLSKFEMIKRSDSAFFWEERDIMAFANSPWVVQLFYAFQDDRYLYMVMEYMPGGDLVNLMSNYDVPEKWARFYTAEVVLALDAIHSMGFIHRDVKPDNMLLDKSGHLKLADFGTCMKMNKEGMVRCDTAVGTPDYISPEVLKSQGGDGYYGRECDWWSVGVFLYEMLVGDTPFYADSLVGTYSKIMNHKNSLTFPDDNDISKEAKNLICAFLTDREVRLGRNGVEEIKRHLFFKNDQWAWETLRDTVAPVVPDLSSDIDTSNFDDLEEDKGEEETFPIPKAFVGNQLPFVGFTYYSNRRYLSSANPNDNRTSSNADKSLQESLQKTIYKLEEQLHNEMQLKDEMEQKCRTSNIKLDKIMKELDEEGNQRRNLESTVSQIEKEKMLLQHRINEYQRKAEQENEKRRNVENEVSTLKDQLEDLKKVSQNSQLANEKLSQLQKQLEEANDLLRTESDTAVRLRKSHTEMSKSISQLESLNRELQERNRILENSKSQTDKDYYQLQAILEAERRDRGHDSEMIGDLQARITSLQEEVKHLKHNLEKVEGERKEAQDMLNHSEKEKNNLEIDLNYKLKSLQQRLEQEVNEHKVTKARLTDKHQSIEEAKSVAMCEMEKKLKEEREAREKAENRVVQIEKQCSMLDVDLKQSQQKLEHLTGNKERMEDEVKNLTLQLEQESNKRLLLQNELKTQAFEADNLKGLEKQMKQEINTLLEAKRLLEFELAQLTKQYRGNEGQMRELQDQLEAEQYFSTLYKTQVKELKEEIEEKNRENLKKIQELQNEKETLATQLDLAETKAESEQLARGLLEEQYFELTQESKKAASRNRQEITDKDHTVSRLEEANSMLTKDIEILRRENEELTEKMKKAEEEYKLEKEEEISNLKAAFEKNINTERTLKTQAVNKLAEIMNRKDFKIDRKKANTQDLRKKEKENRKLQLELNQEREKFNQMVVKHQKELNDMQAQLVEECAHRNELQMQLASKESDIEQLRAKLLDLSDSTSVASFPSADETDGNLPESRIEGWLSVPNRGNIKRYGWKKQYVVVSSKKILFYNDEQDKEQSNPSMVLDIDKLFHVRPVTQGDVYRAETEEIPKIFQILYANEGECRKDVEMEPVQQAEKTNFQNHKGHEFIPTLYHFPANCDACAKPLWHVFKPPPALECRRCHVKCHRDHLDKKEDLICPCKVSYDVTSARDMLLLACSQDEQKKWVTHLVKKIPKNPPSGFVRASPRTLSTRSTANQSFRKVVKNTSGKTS

BRK = target: T42, BRK (Homo sapiens, UniProt Q13882); conditions: read-out: Percent Control
T42 construct: purchased Eurofins DiscoverX KINOMEscan

AXL = target: T43, AXL (Homo sapiens, UniProt P30530); conditions: read-out: Percent Control
T43 construct: purchased Eurofins DiscoverX KINOMEscan

SRC = target: T44, SRC (Homo sapiens, UniProt P12931); conditions: read-out: Percent Control
T44 construct: purchased Eurofins DiscoverX KINOMEscan

`CC(C)NC(=O)COc1cccc(-c2nc(Nc3ccc4[nH]ncc4c3)c3ccccc3n2)c1` [KD025, 2-(3-(4-((1H-indazol-5-yl)amino)quinazolin-2-yl)phenoxy)-N-isopropylacetamide] was tested, and the remaining binding at 10 µM (PFTAIRE2) was 52%, the remaining binding at 10 µM (GRK3) was 84% and the remaining binding at 10 µM (VPS34) was 27%. It also gave a remaining binding at 10 µM (CASK) of 70%, a remaining binding at 10 µM (ERK5) of 100% and a remaining binding at 10 µM (MRCKB) of 1%. The remaining binding at 10 µM (SRMS) was 70%, the remaining binding at 10 µM [1] was 96% and the remaining binding at 10 µM (BRAF) was 85%. For the same compound, the remaining binding at 10 µM [2] was 98%, the remaining binding at 10 µM (ERN1) was 98% and the remaining binding at 10 µM (BMPR2) was 72%. It also gave a remaining binding at 10 µM (PIK3CA(H1047Y)) of 87%, a remaining binding at 10 µM (PAK6) of 100% and a remaining binding at 10 µM (PAK1) of 56%. The remaining binding at 10 µM (STK36) was 91%, the remaining binding at 10 µM (MEK2) was 86% and the remaining binding at 10 µM (KIT(A829P)) was 53%. The remaining binding at 10 µM (PCTK2) was 94%, the remaining binding at 10 µM [3] was 95% and the remaining binding at 10 µM (MAP3K4) was 83%. The remaining binding at 10 µM (CLK2) was 51%, the remaining binding at 10 µM (AMPK-alpha2) was 75% and the remaining binding at 10 µM (HASPIN) was 77%. The remaining binding at 10 µM (BLK) was 11%, the remaining binding at 10 µM (CDC2L1) was 98% and the remaining binding at 10 µM (CSNK1E) was 61%. It also gave a remaining binding at 10 µM (LRRK2(G2019S)) of 99%, a remaining binding at 10 µM (ABL1-nonphosphorylated) of 78% and a remaining binding at 10 µM (LOK) of 9.8%. For the same compound, the remaining binding at 10 µM (MELK) was 83%, the remaining binding at 10 µM (PKN1) was 97% and the remaining binding at 10 µM (YSK4) was 66%. For the same compound, the remaining binding at 10 µM (FGFR2) was 84%, the remaining binding at 10 µM (MEK4) was 100% and the remaining binding at 10 µM (FLT4) was 86%. The remaining binding at 10 µM (IGF1R) was 56%, the remaining binding at 10 µM (ARK5) was 100% and the remaining binding at 10 µM (RIOK3) was 6.7%. For the same compound, the remaining binding at 10 µM (TTK) was 28%, the “ROCK1 vs. ROCK2 in POC” value (ROCK1; 10 μM) was 900 fold and the remaining binding at 10 µM (ROCK1; ROCK1, read-out: Percent Control) was 45%. For the same compound, the remaining binding at 10 µM (BRK) was 86%, the remaining binding at 10 µM (AXL) was 66% and the remaining binding at 10 µM (SRC) was 87%.
